Source: ChEMBL document CHEMBL1201862, “PubChem BioAssay data set” (2004)
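Five concentrations, 48 hours, 96-well plates. GI50 marks 50% less growth.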 Activity calls are given as the source filed them. Rule as the data show it: active = GI50 up to about 1.1 µM and inactive = higher.

What was measured:
Experiment in all cases: NCI-60 cell line screen, 48 h
LOX IMVI = test system: LOX IMVI
KM12 = test system: KM12
RPMI-8226 = test system: RPMI-8226
NCI-H460 = test system: NCI-H460
SNB-19 = test system: SNB-19
MOLT-4 = test system: MOLT-4
SK-MEL-28 = test system: SK-MEL-28
UO-31 = test system: UO-31
CCRF-CEM = test system: CCRF-CEM
TK-10 = test system: TK-10
HCT-116 = test system: HCT-116
M14 = test system: M14
Malme-3M = test system: Malme-3M
SR = test system: SR
DMS-273 = test system: DMS-273
OVCAR-4 = test system: OVCAR-4
NCI-H522 = test system: NCI-H522
NCI-H226 = test system: NCI-H226
SW-620 = test system: SW-620
M19-MEL = test system: M19-MEL
SK-MEL-5 = test system: SK-MEL-5
UACC-257 = test system: UACC-257
OVCAR-8 = test system: OVCAR-8
OVCAR-3 = test system: OVCAR-3
SF-268 = test system: SF-268
HOP-62 = test system: HOP-62
HCC 2998 = test system: HCC 2998
HT-29 = test system: HT-29
CAKI-1 = test system: CAKI-1
SNB-75 = test system: SNB-75
SN12C = test system: SN12C
ACHN = test system: ACHN
HOP-18 = test system: HOP-18
EKVX = test system: EKVX
DMS-114 = test system: DMS-114
A549 = test system: A549
OVCAR-5 = test system: OVCAR-5
K562 = test system: K562
SNB-78 = test system: SNB-78
HL-60 = test system: HL-60
COLO 205 = test system: COLO 205
SF-295 = test system: SF-295
SK-MEL-2 = test system: SK-MEL-2
786-0 = test system: 786-0
HCT-15 = test system: HCT-15
DLD-1 = test system: DLD-1
NCI-H23 = test system: NCI-H23
XF498 = test system: XF498
SF-539 = test system: SF-539
RXF 393 = test system: RXF 393
KM-20L2 = test system: KM-20L2
LXFL 529 = test system: LXFL 529
U-251 = test system: U-251
UACC-62 = test system: UACC-62
SK-OV-3 = test system: SK-OV-3
IGROV-1 = test system: IGROV-1
HOP-92 = test system: HOP-92

With `COc1ccc(CNc2cnc3ccc(N)cc3n2)cc1OC` the GI50 (LOX IMVI) was > 100 µM (inactive), the GI50 (KM12) was > 100 µM (inactive) and the GI50 (RPMI-8226) was > 100 µM (inactive). The GI50 (NCI-H460) was > 100 µM (inactive), the GI50 (SNB-19) was > 100 µM (inactive) and the GI50 (MOLT-4) was > 100 µM (inactive). For the same molecule, the GI50 (SK-MEL-28) was 67 µM (inactive), the GI50 (UO-31) was 79.6 µM (inactive) and the GI50 (CCRF-CEM) was > 100 µM (inactive). For the same molecule, the GI50 (TK-10) was 64.6 µM (inactive), the GI50 (HCT-116) was 53.8 µM (inactive) and the GI50 (M14) was > 100 µM (inactive). For the same molecule, the GI50 (Malme-3M) was > 100 µM (inactive), the GI50 (SR) was > 100 µM (inactive) and the GI50 (DMS-273) was 41.3 µM (inactive). The GI50 (OVCAR-4) was > 100 µM (inactive), the GI50 (NCI-H522) was > 100 µM (inactive) and the GI50 (NCI-H226) was > 100 µM (inactive). The GI50 (SW-620) was > 100 µM (inactive), the GI50 (M19-MEL) was 64.3 µM (inactive) and the GI50 (SK-MEL-5) was > 100 µM (inactive). For the same molecule, the GI50 (UACC-257) was > 100 µM (inactive), the GI50 (OVCAR-8) was > 100 µM (inactive) and the GI50 (OVCAR-3) was > 100 µM (inactive). The GI50 (SF-268) was > 100 µM (inactive), the GI50 (HOP-62) was > 10 µM (inactive) and the GI50 (HCC 2998) was > 100 µM (inactive). The GI50 (HT-29) was > 100 µM (inactive), the GI50 (CAKI-1) was > 100 µM (inactive) and the GI50 (SNB-75) was 66.7 µM (inactive). For the same molecule, the GI50 (SN12C) was > 100 µM (inactive), the GI50 (ACHN) was > 100 µM (inactive) and the GI50 (HOP-18) was 0.548 µM (active). For the same molecule, the GI50 (EKVX) was > 100 µM (inactive), the GI50 (DMS-114) was 47.3 µM (inactive) and the GI50 (A549) was > 100 µM (inactive). The GI50 (OVCAR-5) was > 100 µM (inactive), the GI50 (K562) was > 100 µM (inactive) and the GI50 (SNB-78) was > 100 µM (inactive). The GI50 (HL-60) was > 100 µM (inactive), the GI50 (COLO 205) was 60 µM (inactive) and the GI50 (SF-295) was > 100 µM (inactive). For the same molecule, the GI50 (SK-MEL-2) was > 100 µM (inactive), the GI50 (786-0) was > 100 µM (inactive) and the GI50 (HCT-15) was greater than 100 µM. For the same molecule, the GI50 (DLD-1) was > 100 µM (inactive), the GI50 (NCI-H23) was > 100 µM (inactive) and the GI50 (XF498) was > 100 µM (inactive). For the same molecule, the GI50 (SF-539) was > 100 µM (inactive).
For `COc1ccc(-c2csc(=[N+]3CCCCC3)s2)cc1`, the GI50 (LOX IMVI) was 4.83 µM (inactive), the GI50 (KM12) was 2.36 µM (inactive) and the GI50 (RPMI-8226) was 2.11 µM (inactive). For the same molecule, the GI50 (NCI-H460) was 3.71 µM (inactive), the GI50 (SNB-19) was 1.67 µM (inactive) and the GI50 (MOLT-4) was 2.53 µM (inactive). For the same molecule, the GI50 (SK-MEL-28) was 6 µM (inactive), the GI50 (UO-31) was > 100 µM (inactive) and the GI50 (CCRF-CEM) was 1.62 µM (inactive). The GI50 (RXF 393) was 4.14 µM (inactive), the GI50 (TK-10) was 29.3 µM (inactive) and the GI50 (HCT-116) was 4.42 µM (inactive). For the same molecule, the GI50 (M14) was 10.9 µM (inactive), the GI50 (KM-20L2) was 2.66 µM (inactive) and the GI50 (Malme-3M) was 2.76 µM (inactive). For the same molecule, the GI50 (SR) was 2.26 µM (inactive), the GI50 (DMS-273) was 3.27 µM (inactive) and the GI50 (OVCAR-4) was 4.48 µM (inactive). For the same molecule, the GI50 (NCI-H522) was 1.72 µM (inactive), the GI50 (NCI-H226) was 2.92 µM (inactive) and the GI50 (SW-620) was 2.88 µM (inactive). The GI50 (M19-MEL) was 2.61 µM (inactive), the GI50 (SK-MEL-5) was 1.87 µM (inactive) and the GI50 (UACC-257) was 3.34 µM (inactive). For the same molecule, the GI50 (OVCAR-8) was 3.05 µM (inactive), the GI50 (OVCAR-3) was 3.92 µM (inactive) and the GI50 (SF-268) was 1.42 µM (inactive). The GI50 (HOP-62) was 2.54 µM (inactive), the GI50 (LXFL 529) was 3.07 µM (inactive) and the GI50 (HCC 2998) was 3.85 µM (inactive). The GI50 (HT-29) was 3.01 µM (inactive), the GI50 (CAKI-1) was 2.36 µM (inactive) and the GI50 (SNB-75) was 1.23 µM (inactive). The GI50 (SN12C) was 3.61 µM (inactive), the GI50 (ACHN) was 9.44 µM (inactive) and the GI50 (HOP-18) was 5.15 µM (inactive). The GI50 (EKVX) was 6.76 µM (inactive), the GI50 (A549) was 1.94 µM (inactive) and the GI50 (U-251) was 0.743 µM (active). The GI50 (OVCAR-5) was 8.83 µM (inactive), the GI50 (K562) was 2.23 µM (inactive) and the GI50 (SNB-78) was 3.58 µM (inactive). For the same molecule, the GI50 (UACC-62) was 7.78 µM (inactive), the GI50 (HL-60) was 2.29 µM (inactive) and the GI50 (COLO 205) was 1.49 µM (inactive). The GI50 (SF-295) was 1.98 µM (inactive), the GI50 (SK-MEL-2) was 3.63 µM (inactive) and the GI50 (SK-OV-3) was 3.41 µM (inactive). The GI50 (IGROV-1) was 4.54 µM (inactive), the GI50 (786-0) was 4.83 µM (inactive) and the GI50 (HCT-15) was 47.3 µM. The GI50 (HOP-92) was 2.38 µM (inactive), the GI50 (DLD-1) was 4.79 µM (inactive) and the GI50 (NCI-H23) was 1.63 µM (inactive). For the same molecule, the GI50 (XF498) was 4.05 µM (inactive) and the GI50 (SF-539) was 4.56 µM (inactive).
